Among the data in ChEMBL document CHEMBL1134431, “Chemoenzymatic synthesis of functionalized cyclohexylglycines and alpha-methylcyclohexylglycines via Kazmaier-Claisen rearrangement” (Bioorg Med Chem Lett, 2001) are IC50 values, retold here.

The term IC50 denotes the concentration that inhibits the measured activity by half.

The target in one test is Stromelysin-1 (Homo sapiens, UniProt P08254). Kind of test: Inhibition of Stromelysin (Matrix metalloprotease-3).
Test [1] concerns the target 72 kDa type IV collagenase (Homo sapiens, UniProt P08253). Kind of test: Inhibition of gelatinase A (Matrix metalloprotease-2).
The target in a further test is Collagenase 3 (Homo sapiens, UniProt P45452). The test can be described thus: Inhibition of Collagenase 3 (Matrix metalloprotease-13).

Sequence of 72 kDa type IV collagenase (P08253 whole entry): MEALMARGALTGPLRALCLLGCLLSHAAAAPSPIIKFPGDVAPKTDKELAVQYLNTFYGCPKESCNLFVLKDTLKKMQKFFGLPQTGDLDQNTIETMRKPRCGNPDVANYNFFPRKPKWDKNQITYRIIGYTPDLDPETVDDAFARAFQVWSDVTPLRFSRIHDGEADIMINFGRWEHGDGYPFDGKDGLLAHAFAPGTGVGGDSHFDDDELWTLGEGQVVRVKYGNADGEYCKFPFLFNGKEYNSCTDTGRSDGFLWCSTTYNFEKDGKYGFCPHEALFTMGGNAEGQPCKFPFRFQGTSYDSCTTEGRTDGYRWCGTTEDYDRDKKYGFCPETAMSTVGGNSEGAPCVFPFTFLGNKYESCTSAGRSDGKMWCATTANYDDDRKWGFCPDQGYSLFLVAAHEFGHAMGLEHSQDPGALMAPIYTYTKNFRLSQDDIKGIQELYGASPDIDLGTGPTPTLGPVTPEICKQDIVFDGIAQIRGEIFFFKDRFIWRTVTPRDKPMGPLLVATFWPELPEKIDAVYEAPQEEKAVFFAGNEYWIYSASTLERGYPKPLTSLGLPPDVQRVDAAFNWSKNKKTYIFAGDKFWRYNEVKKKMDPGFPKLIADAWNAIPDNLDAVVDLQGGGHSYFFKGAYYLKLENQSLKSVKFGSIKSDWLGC
Sequence of Stromelysin-1 (P08254 whole entry): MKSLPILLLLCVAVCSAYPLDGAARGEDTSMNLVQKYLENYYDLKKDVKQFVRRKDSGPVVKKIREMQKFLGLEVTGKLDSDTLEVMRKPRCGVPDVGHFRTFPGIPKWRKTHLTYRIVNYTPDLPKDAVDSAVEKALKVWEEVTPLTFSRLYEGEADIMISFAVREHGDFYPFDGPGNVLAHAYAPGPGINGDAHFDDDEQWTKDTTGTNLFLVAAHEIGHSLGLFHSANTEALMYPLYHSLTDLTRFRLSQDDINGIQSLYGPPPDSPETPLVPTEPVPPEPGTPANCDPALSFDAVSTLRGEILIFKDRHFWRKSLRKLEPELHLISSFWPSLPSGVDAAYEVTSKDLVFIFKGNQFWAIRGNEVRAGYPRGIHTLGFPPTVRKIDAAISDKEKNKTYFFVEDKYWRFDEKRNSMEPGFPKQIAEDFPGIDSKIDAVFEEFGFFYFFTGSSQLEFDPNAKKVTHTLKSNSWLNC

Consider `COc1ccc(-c2ccc(S(=O)(=O)N[C@@H](C(=O)O)C3C=C[C@@H](O)CC3)cc2)cc1` (some centres not stated), for which the IC50 at Stromelysin-1 was found to be 2490 nM; in test [1] it was 20 nM; against Collagenase 3, 176 nM.

Take `COc1ccc(-c2ccc(S(=O)(=O)N[C@@H](C(=O)O)C3CC[C@H](O)C=C3Br)cc2)cc1` (some centres not stated): the IC50 is 3800 nM against Stromelysin-1, 38 nM in test [1] and 131 nM against Collagenase 3.

`COc1ccc(-c2ccc(S(=O)(=O)N[C@@H](C(=O)O)C3CCC(O)CC3)cc2)cc1` (some centres not stated): the values for the IC50 (against Stromelysin-1; in test [1]; against Collagenase 3) were 1220 nM, 12 nM and 30 nM, respectively.

Turning to `COc1ccc(-c2ccc(S(=O)(=O)N[C@@](C)(C(=O)O)C3CCC(O)CC3)cc2)cc1` (some centres not stated), the half-inhibitory concentration (IC50) worked out at 6150 nM against Stromelysin-1, 251 nM in test [1] and 338 nM on Collagenase 3.
